# From the NIST ThermoML archive (doi:10.1016/j.jct.2005.01.017)
# Numbers after ± are expanded uncertainties.
# Assay: xn = mol fraction of the nth substance listed
# Settings: 101 kPa, Liquid
smiles,measurement,setting,value
"CC1COC(=O)O1 (stereo unspecified) [4-methyl-1,3-dioxolan-2-one] + Cc1ccccc1C",mass density,"293.15 K, x2 = 0",1200.25 ± 40 kg/m3
same,mass density,"293.15 K, x2 = 0.0538",1176.67 ± 40 kg/m3
same,mass density,"293.15 K, x2 = 0.1287",1145.43 ± 40 kg/m3
same,mass density,"293.15 K, x2 = 0.1843",1123.36 ± 40 kg/m3
same,mass density,"293.15 K, x2 = 0.2358",1103.71 ± 40 kg/m3
same,mass density,"293.15 K, x2 = 0.3149",1074.93 ± 40 kg/m3
same,mass density,"293.15 K, x2 = 0.3559",1060.64 ± 40 kg/m3
same,mass density,"293.15 K, x2 = 0.4247",1037.54 ± 40 kg/m3
same,mass density,"293.15 K, x2 = 0.4792",1020.01 ± 40 kg/m3
same,mass density,"293.15 K, x2 = 0.5345",1002.84 ± 40 kg/m3
same,mass density,"293.15 K, x2 = 0.6031",982.36 ± 40 kg/m3
same,mass density,"293.15 K, x2 = 0.6638",964.97 ± 40 kg/m3
same,mass density,"293.15 K, x2 = 0.7213",949.05 ± 40 kg/m3
same,mass density,"293.15 K, x2 = 0.7832",932.49 ± 40 kg/m3
same,mass density,"293.15 K, x2 = 0.8529",914.51 ± 40 kg/m3
same,mass density,"293.15 K, x2 = 0.9284",895.76 ± 40 kg/m3
same,mass density,"303.15 K, x2 = 0",1180.55 ± 40 kg/m3
same,mass density,"303.15 K, x2 = 0.0613",1155.03 ± 40 kg/m3
same,mass density,"303.15 K, x2 = 0.1273",1128.84 ± 40 kg/m3
same,mass density,"303.15 K, x2 = 0.1732",1111.36 ± 40 kg/m3
same,mass density,"303.15 K, x2 = 0.2583",1080.45 ± 40 kg/m3
same,mass density,"303.15 K, x2 = 0.3341",1054.45 ± 40 kg/m3
same,mass density,"303.15 K, x2 = 0.3619",1045.26 ± 40 kg/m3
same,mass density,"303.15 K, x2 = 0.4282",1024.01 ± 40 kg/m3
same,mass density,"303.15 K, x2 = 0.4911",1004.69 ± 40 kg/m3
same,mass density,"303.15 K, x2 = 0.5538",986.2 ± 40 kg/m3
same,mass density,"303.15 K, x2 = 0.6132",969.33 ± 40 kg/m3
same,mass density,"303.15 K, x2 = 0.6739",952.71 ± 40 kg/m3
same,mass density,"303.15 K, x2 = 0.7428",934.53 ± 40 kg/m3
same,mass density,"303.15 K, x2 = 0.8023",919.3 ± 40 kg/m3
same,mass density,"303.15 K, x2 = 0.8631",904.39 ± 40 kg/m3
same,mass density,"303.15 K, x2 = 0.9347",887.3 ± 40 kg/m3
same,mass density,"313.15 K, x2 = 0",1161.28 ± 40 kg/m3
same,mass density,"313.15 K, x2 = 0.0643",1135.09 ± 40 kg/m3
same,mass density,"313.15 K, x2 = 0.1138",1115.77 ± 40 kg/m3
same,mass density,"313.15 K, x2 = 0.1729",1093.62 ± 40 kg/m3
same,mass density,"313.15 K, x2 = 0.2483",1066.72 ± 40 kg/m3
same,mass density,"313.15 K, x2 = 0.3248",1040.87 ± 40 kg/m3
same,mass density,"313.15 K, x2 = 0.3958",1018.07 ± 40 kg/m3
same,mass density,"313.15 K, x2 = 0.4587",998.77 ± 40 kg/m3
same,mass density,"313.15 K, x2 = 0.518",981.29 ± 40 kg/m3
same,mass density,"313.15 K, x2 = 0.5628",968.51 ± 40 kg/m3
same,mass density,"313.15 K, x2 = 0.6345",948.78 ± 40 kg/m3
same,mass density,"313.15 K, x2 = 0.6948",932.83 ± 40 kg/m3
same,mass density,"313.15 K, x2 = 0.7539",917.73 ± 40 kg/m3
same,mass density,"313.15 K, x2 = 0.8039",905.34 ± 40 kg/m3
same,mass density,"313.15 K, x2 = 0.8621",891.32 ± 40 kg/m3
same,mass density,"313.15 K, x2 = 0.9357",874.17 ± 40 kg/m3
same,mass density,"323.15 K, x2 = 0",1142.43 ± 40 kg/m3
same,mass density,"323.15 K, x2 = 0.0527",1120.67 ± 40 kg/m3
same,mass density,"323.15 K, x2 = 0.1328",1089.28 ± 40 kg/m3
same,mass density,"323.15 K, x2 = 0.1842",1070.13 ± 40 kg/m3
same,mass density,"323.15 K, x2 = 0.2487",1047.11 ± 40 kg/m3
same,mass density,"323.15 K, x2 = 0.3398",1016.41 ± 40 kg/m3
same,mass density,"323.15 K, x2 = 0.3781",1004.09 ± 40 kg/m3
same,mass density,"323.15 K, x2 = 0.4487",982.22 ± 40 kg/m3
same,mass density,"323.15 K, x2 = 0.5031",966.07 ± 40 kg/m3
same,mass density,"323.15 K, x2 = 0.5529",951.78 ± 40 kg/m3
same,mass density,"323.15 K, x2 = 0.6249",931.92 ± 40 kg/m3
same,mass density,"323.15 K, x2 = 0.6843",916.18 ± 40 kg/m3
same,mass density,"323.15 K, x2 = 0.7451",900.64 ± 40 kg/m3
same,mass density,"323.15 K, x2 = 0.8146",883.52 ± 40 kg/m3
same,mass density,"323.15 K, x2 = 0.8702",870.29 ± 40 kg/m3
same,mass density,"323.15 K, x2 = 0.9429",853.56 ± 40 kg/m3
same,mass density,"333.15 K, x2 = 0",1123.99 ± 40 kg/m3
same,mass density,"333.15 K, x2 = 0.0578",1099.25 ± 40 kg/m3
same,mass density,"333.15 K, x2 = 0.1298",1070.06 ± 40 kg/m3
same,mass density,"333.15 K, x2 = 0.1844",1049.03 ± 40 kg/m3
same,mass density,"333.15 K, x2 = 0.2358",1030.04 ± 40 kg/m3
same,mass density,"333.15 K, x2 = 0.3139",1002.61 ± 40 kg/m3
same,mass density,"333.15 K, x2 = 0.3847",979.1 ± 40 kg/m3
same,mass density,"333.15 K, x2 = 0.4412",961.2 ± 40 kg/m3
same,mass density,"333.15 K, x2 = 0.5055",941.69 ± 40 kg/m3
same,mass density,"333.15 K, x2 = 0.5572",926.61 ± 40 kg/m3
same,mass density,"333.15 K, x2 = 0.6148",910.43 ± 40 kg/m3
same,mass density,"333.15 K, x2 = 0.6627",897.43 ± 40 kg/m3
same,mass density,"333.15 K, x2 = 0.7365",878.16 ± 40 kg/m3
same,mass density,"333.15 K, x2 = 0.7947",863.56 ± 40 kg/m3
same,mass density,"333.15 K, x2 = 0.8634",846.95 ± 40 kg/m3
same,mass density,"333.15 K, x2 = 0.9354",830.22 ± 40 kg/m3
same,mass density,"343.15 K, x2 = 0",1105.98 ± 40 kg/m3
same,mass density,"343.15 K, x2 = 0.0527",1081.81 ± 40 kg/m3
same,mass density,"343.15 K, x2 = 0.1278",1049.31 ± 40 kg/m3
same,mass density,"343.15 K, x2 = 0.1782",1028.67 ± 40 kg/m3
same,mass density,"343.15 K, x2 = 0.2476",1001.67 ± 40 kg/m3
same,mass density,"343.15 K, x2 = 0.3279",972.32 ± 40 kg/m3
same,mass density,"343.15 K, x2 = 0.3841",952.89 ± 40 kg/m3
same,mass density,"343.15 K, x2 = 0.4529",930.23 ± 40 kg/m3
same,mass density,"343.15 K, x2 = 0.5139",911.13 ± 40 kg/m3
same,mass density,"343.15 K, x2 = 0.5732",893.36 ± 40 kg/m3
same,mass density,"343.15 K, x2 = 0.6241",878.7 ± 40 kg/m3
same,mass density,"343.15 K, x2 = 0.6742",864.77 ± 40 kg/m3
same,mass density,"343.15 K, x2 = 0.7246",851.23 ± 40 kg/m3
same,mass density,"343.15 K, x2 = 0.7726",838.75 ± 40 kg/m3
same,mass density,"343.15 K, x2 = 0.8523",818.84 ± 40 kg/m3
same,mass density,"343.15 K, x2 = 0.9274",800.96 ± 40 kg/m3
same,mass density,"353.15 K, x2 = 0",1088.38 ± 40 kg/m3
same,mass density,"353.15 K, x2 = 0.0639",1056.4 ± 40 kg/m3
same,mass density,"353.15 K, x2 = 0.1128",1033.26 ± 40 kg/m3
same,mass density,"353.15 K, x2 = 0.1832",1001.84 ± 40 kg/m3
same,mass density,"353.15 K, x2 = 0.2478",974.79 ± 40 kg/m3
same,mass density,"353.15 K, x2 = 0.3255",944.31 ± 40 kg/m3
same,mass density,"353.15 K, x2 = 0.3859",922.03 ± 40 kg/m3
same,mass density,"353.15 K, x2 = 0.4628",895.28 ± 40 kg/m3
same,mass density,"353.15 K, x2 = 0.5248",874.93 ± 40 kg/m3
same,mass density,"353.15 K, x2 = 0.5819",857.07 ± 40 kg/m3
same,mass density,"353.15 K, x2 = 0.6249",844.14 ± 40 kg/m3
same,mass density,"353.15 K, x2 = 0.6829",827.36 ± 40 kg/m3
same,mass density,"353.15 K, x2 = 0.7249",815.64 ± 40 kg/m3
same,mass density,"353.15 K, x2 = 0.7821",800.25 ± 40 kg/m3
same,mass density,"353.15 K, x2 = 0.8698",777.8 ± 40 kg/m3
